From patent US20180099931A1 (AbbVie S.à.r.l., priority 2016, published 2018)
Like-named read-outs stand apart in the source and are kept apart here.

Target: T1, F508delCFTR (Homo sapiens, UniProt P13569, DEL508-508)
T1 construct: expressed in transfected cells; host or cells: CFBE41o- human lung-derived epithelial cells (CFBE4lo-F508delCFTR-HRP), doxycycline-inducible
Assay: Cell Surface Expression-Horse Radish Peroxidase (CSE-HRP) Assay;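 on Maximum % activity (with co-corrector): co-corrector and positive control are both the same reference corrector at 2 µM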;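 on Maximum % activity (without co-corrector): percent of the 2 µM on-plate positive control corrector response above DMSO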
Format: cell-based
Conditions: for Maximum % activity (with co-corrector) / Emax: maximum at any tested concentration, normalized to on-plate positive control; for Emax: read-out: Maximum % activity (without co-corrector)

[1] = CSE-HRP, test compound without co-corrector, read-out: EC50 (without co-corrector)
[2] = CSE-HRP, with co-corrector (2 μM of 3-[(2R,4R)-4-({[1-(2,2-difluoro-1,3-benzodioxol-5-yl)cyclopropyl]carbonyl}amino)-7-methoxy-3,4-dihydro-2H-chromen-2-yl]benzoic acid), read-out: EC50 (with co-corrector)
[3] = CSE-HRP, with co-corrector (2 μM)
[4] = test compound without co-corrector
[5] = test compound without co-corrector, read-out: EC50 (without co-corrector)
[6] = with co-corrector (2 μM of 3-[(2R,4R)-4-({[1-(2,2-difluoro-1,3-benzodioxol-5-yl)cyclopropyl]carbonyl}amino)-7-methoxy-3,4-dihydro-2H-chromen-2-yl]benzoic acid), read-out: EC50 (with co-corrector)
[7] = with co-corrector (2 μM of 3-[(2R,4R)-4-({[1-(2,2-difluoro-1,3-benzodioxol-5-yl)cyclopropyl]carbonyl}amino)-7-methoxy-3,4-dihydro-2H-chromen-2-yl]benzoic acid)

T1 sequence (P13569 with tags, fused parts or gaps DEL508-508): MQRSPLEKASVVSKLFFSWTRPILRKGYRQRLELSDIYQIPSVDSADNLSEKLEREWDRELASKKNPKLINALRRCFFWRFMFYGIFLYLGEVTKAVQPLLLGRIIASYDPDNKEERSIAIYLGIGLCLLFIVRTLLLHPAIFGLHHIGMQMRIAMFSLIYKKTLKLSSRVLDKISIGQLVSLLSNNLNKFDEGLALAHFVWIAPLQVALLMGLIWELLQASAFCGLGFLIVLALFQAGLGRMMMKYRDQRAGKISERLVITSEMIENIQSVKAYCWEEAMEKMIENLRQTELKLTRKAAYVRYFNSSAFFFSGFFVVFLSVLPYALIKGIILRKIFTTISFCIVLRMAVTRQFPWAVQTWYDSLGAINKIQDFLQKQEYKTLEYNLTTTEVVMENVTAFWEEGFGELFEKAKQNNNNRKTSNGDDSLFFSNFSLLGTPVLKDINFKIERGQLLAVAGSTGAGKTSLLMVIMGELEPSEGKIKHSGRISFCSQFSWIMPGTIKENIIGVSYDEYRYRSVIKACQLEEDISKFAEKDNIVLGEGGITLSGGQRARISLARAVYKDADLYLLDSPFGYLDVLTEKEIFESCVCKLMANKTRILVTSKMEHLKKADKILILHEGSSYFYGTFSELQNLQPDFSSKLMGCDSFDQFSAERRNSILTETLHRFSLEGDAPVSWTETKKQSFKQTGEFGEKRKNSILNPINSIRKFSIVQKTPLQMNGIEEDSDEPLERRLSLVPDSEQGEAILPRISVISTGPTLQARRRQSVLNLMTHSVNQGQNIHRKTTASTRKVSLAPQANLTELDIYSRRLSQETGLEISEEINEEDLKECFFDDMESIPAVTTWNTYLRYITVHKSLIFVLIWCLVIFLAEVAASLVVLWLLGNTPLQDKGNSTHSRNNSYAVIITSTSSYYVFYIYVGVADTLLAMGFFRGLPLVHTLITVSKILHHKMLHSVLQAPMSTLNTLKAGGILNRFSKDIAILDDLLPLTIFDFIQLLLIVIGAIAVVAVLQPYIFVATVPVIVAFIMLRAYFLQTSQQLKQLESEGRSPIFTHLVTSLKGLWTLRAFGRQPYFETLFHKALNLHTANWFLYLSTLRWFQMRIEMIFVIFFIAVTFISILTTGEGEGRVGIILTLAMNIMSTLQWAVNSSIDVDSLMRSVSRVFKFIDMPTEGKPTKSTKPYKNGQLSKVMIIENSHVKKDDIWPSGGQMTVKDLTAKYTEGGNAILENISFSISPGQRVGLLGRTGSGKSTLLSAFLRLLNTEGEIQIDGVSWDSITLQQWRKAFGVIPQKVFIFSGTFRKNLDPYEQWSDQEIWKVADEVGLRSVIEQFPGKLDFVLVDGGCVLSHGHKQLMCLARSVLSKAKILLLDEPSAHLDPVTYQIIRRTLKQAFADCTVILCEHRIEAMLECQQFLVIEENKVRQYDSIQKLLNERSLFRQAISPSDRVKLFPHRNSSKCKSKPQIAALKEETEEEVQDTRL

EC50 [1]	EC50 [2]	Maximum % activity (with co-corrector) [3]	Emax (CSE-HRP, without co-corrector)	Emax [4]	EC50 [5]	EC50 [6]	Maximum % activity (with co-corrector) (with co-corrector (2 μM))	Maximum % activity (with co-corrector) [7]	Emax (without co-corrector)	SMILES
				< 100%	1000 to 10000 nM	1000 to 10000 nM	++ (≥150 and <350)			COc1cc(C(F)(F)F)ccc1CN[C@@H]1[C@@H](C(C)(C)C)[C@H](C(=O)O)N(C(=O)C2COCCO2)[C@@H]1c1ccccc1 (mixture of isomers) [III-113]
				< 100%	> 10000 nM	1000 to 10000 nM	++ (≥150 and <350)			CC(C)(O)c1cc(Cl)nc(N[C@H]2[C@H](C(C)(C)C)[C@@H](C(=O)O)N(C(=O)C3CCCCC3)[C@H]2c2ccccc2)c1 [III-147]
				< 100%	> 10000 nM	1000 to 10000 nM		++ (≥150 and <350)		CC(C)(C)[C@@H]1[C@@H](NCc2cccc(Cl)c2O)[C@@H](c2ccccc2)N(C(=O)C2CCCCC2)[C@H]1C(=O)O (racemic) [III-9]
				< 100%	> 10000 nM	1000 to 10000 nM	++ (≥150 and <350)			COc1ccc(C(F)(F)F)cc1CN[C@H]1[C@H](C(C)(C)C)[C@@H](C(=O)O)N(C(=O)C2CCCCC2)[C@H]1c1ncccc1Cl [III-164]
				< 100%	> 10000 nM	1000 to 10000 nM	++ (≥150 and <350)			COc1cc(C(F)(F)F)ccc1CN[C@@H]1[C@@H](C(C)(C)C)[C@H](C(=O)O)N(C(=O)[C@@H](OC)c2ccccc2)[C@@H]1c1ccccc1 [III-101]
				< 100%	> 10000 nM	1000 to 10000 nM		++ (≥150 and <350)		O=C(O)[C@@H]1N(C(=O)C2CCCCC2)[C@H](c2ccccc2)[C@H](NCc2ccccc2OC(F)F)C12CC2 (racemic) [III-57]
				< 100%	1000 to 10000 nM	1000 to 10000 nM		++ (≥150 and <350)		Cc1cc(C(F)(F)F)cc(N[C@@H]2[C@@H](C(C)(C)C)[C@H](C(=O)NS(=O)(=O)C3(C)CC3)N(C(=O)C3CCCCC3)[C@@H]2c2ccccc2)n1 (racemic) [III-51]
				< 100%	< 1000 nM	1000 to 10000 nM	+++ (≥350)			CC(C)(C)[C@H]1[C@H](NCc2cc(Br)ccc2OC(F)F)[C@H](c2ccccc2)N(C(=O)C2CCCCC2)[C@@H]1C(=O)O [III-131]

The remaining lines, values behind:

SMILES	EC50 [1]	EC50 [2]	Maximum % activity (with co-corrector) [3]	Emax (CSE-HRP, without co-corrector)	Emax [4]	EC50 [5]	EC50 [6]	Maximum % activity (with co-corrector) (with co-corrector (2 μM))	Maximum % activity (with co-corrector) [7]	Emax (without co-corrector)
COc1ccc(-c2ccc(F)cc2F)cc1CN[C@H]1[C@H](C(C)(C)C)[C@@H](C(=O)O)N(C(=O)C2CCCCC2)[C@H]1c1ccccc1 [II-283]	< 1000 nM	< 1000 nM	+++ (≥350)	> 200%						
COc1cnc(-c2ccc(C)cc2F)cc1CN[C@H]1[C@H](C(C)(C)C)[C@@H](C(=O)O)N(C(=O)C2CCCCC2)[C@H]1c1ccccc1 [II-416]					100 to 200%	< 1000 nM	< 1000 nM		+++ (≥350)	
COc1ccc(C(C)(C)C)cc1CN[C@H]1[C@H](C(C)(C)OC)[C@@H](C(=O)O)N(C(=O)C2CCCCC2)[C@H]1c1cccnc1N(C)C [Example 41, (2S,3S,4S,5S)-4-{[(5-tert-butyl-2-methoxyphenyl)methyl]amino}-1-(cyclohexanecarbonyl)-5-[2-(dimethylamino)pyridin-3-yl]-3-(2-methoxypropan-2-yl)pyrrolidine-2-carboxylic acid]						1000 to 10000 nM	< 1000 nM	+++ (≥350)		> 200%
COc1ccc(-c2ccccc2)cc1CN[C@H]1[C@H](C(C)(C)OC)[C@@H](C(=O)O)N(C(=O)C2CCCCC2)[C@H]1c1ccccc1 [Example I-87]						< 1000 nM	< 1000 nM	+++ (≥350)		> 200%
COc1cccc([C@@H]2[C@H](NCc3ccccc3OC(F)F)[C@@H](C(C)(C)C)[C@H](C(=O)O)N2C(=O)C2CCCCO2)n1 (mixture of isomers) [Example I-18]						1000 to 10000 nM	1000 to 10000 nM	+++ (≥350)		< 100%
COc1ccc(C(C)(C)C)cc1CN[C@H]1[C@H](C(C)(C)C)[C@@H](C(=O)O)N(C(=O)c2cccnc2)[C@H]1c1ccccc1 [Example I-64]						1000 to 10000 nM	1000 to 10000 nM	+++ (≥350)		< 100%
COc1ncc(C(F)(F)F)cc1CN[C@H]1[C@H](C23CC(C2)C3)[C@@H](C(=O)O)N(C(=O)OC(C)C)[C@H]1c1ccccc1F [II-544]					100 to 200%	1000 to 10000 nM	1000 to 10000 nM		+++ (≥350)	
COc1ccc(C(C)(C)C)cc1CN[C@H]1[C@H](C(C)(C)C)[C@@H](C(=O)O)N(C(=O)[C@H](C)[C@@H]2CCCCO2)[C@H]1c1ccccc1 (relative stereo) [II-454]					100 to 200%	1000 to 10000 nM	1000 to 10000 nM		+++ (≥350)	
COc1ccc(SC(F)(F)F)cc1CN[C@H]1[C@H](C(C)(C)C)[C@@H](C(=O)O)N(C(=O)C2CCCCC2)[C@H]1c1ccccc1 [Example I-184]						1000 to 10000 nM	< 1000 nM	+++ (≥350)		100 to 200%
COc1ccc(C(C)(C)C)cc1CN[C@H]1[C@H](C(C)(C)C)[C@@H](C(=O)O)N(C(=O)C2CC3CC3C2)[C@H]1c1ccccc1 (stereo partly shown) [Example I-186]						1000 to 10000 nM	1000 to 10000 nM	+++ (≥350)		100 to 200%
COc1ccccc1C1(CN[C@H]2[C@H](C(C)(C)C)[C@@H](C(=O)O)N(C(=O)OC(C)C)[C@H]2c2ccccc2)CCOCC1 [Example I-267]	> 10000 nM	1000 to 10000 nM	+ (<150)	< 100%						
COc1ccc(C2CC3CCC2C3)cc1CN[C@H]1[C@H](C(C)(C)C)[C@@H](C(=O)O)N(C(=O)C2CCCCC2)[C@H]1c1ccccc1 (stereo partly shown) [II-194]	< 1000 nM	< 1000 nM	+++ (≥350)	> 200%						
COc1ccc(C(C)(C)C)cc1CN[C@H]1[C@H](C(C)(C)C)[C@@H](C(=O)O)N(C(=O)C2CCCCC2)[C@H]1c1ccc(F)cc1 [Example I-112]						< 1000 nM	< 1000 nM	+++ (≥350)		> 200%
COc1ccc(C(C)(C)C)cc1CN[C@H]1[C@H](C(C)(C)C)[C@@H](C(=O)O)N(C(=O)CC2CCC(F)(F)C2)[C@H]1c1ccccc1 (stereo partly shown) [II-218]	1000 to 10000 nM	1000 to 10000 nM	+++ (≥350)	100 to 200%						
COc1cc(C(F)(F)F)ccc1CN[C@H]1[C@H](C(C)(C)C)[C@@H](C(=O)O)N(C(=O)C2CCCCC2)[C@H]1c1ccccc1F [II-261]	1000 to 10000 nM	1000 to 10000 nM	+++ (≥350)	< 100%						
COc1ccc(C(F)(F)F)cc1CN[C@H]1[C@H](C(C)(C)C)[C@@H](C(=O)O)N(C(=O)C2Cc3ccccc3CO2)[C@H]1c1ccccc1 (stereo partly shown) [II-299]	1000 to 10000 nM	1000 to 10000 nM	+++ (≥350)	100 to 200%						
COc1ccc(C(F)(F)F)cc1CN[C@@H]1[C@@H](C(C)(C)C)[C@H](C(=O)O)N(C(=O)C2CCCCC2)[C@@H]1c1ccccc1OC (racemic) [II-17]	1000 to 10000 nM	1000 to 10000 nM	+++ (≥350)	100 to 200%						
COc1ccc(C(C)(C)C)cc1CN[C@H]1[C@H](C(C)(C)C)[C@@H](C(=O)O)N(C(=O)[C@@H]2C[C@H]2c2cccnc2)[C@H]1c1ccccc1 (relative stereo) [Example I-139]						1000 to 10000 nM	1000 to 10000 nM	+++ (≥350)		> 200%
CC(C)Oc1ccccc1CN[C@@H]1[C@@H](C(C)(C)C)[C@H](C(=O)O)N(C(=O)C2CCCCC2)[C@@H]1c1ccccc1 (racemic) [II-4]	1000 to 10000 nM	1000 to 10000 nM	+++ (≥350)	100 to 200%						
COc1ccc(C(C)(C)C)cc1CN[C@H]1[C@H](C(C)(C)C)[C@@H](C(=O)O)N(C(=O)C2CCC(F)(F)CC2)[C@H]1c1cccnc1N(C)C [II-468]					100 to 200%	1000 to 10000 nM	1000 to 10000 nM		+++ (≥350)	
COc1nc(C(C)(C)C)ccc1CN[C@H]1[C@H](C(C)(C)C)[C@@H](C(=O)O)N(C(=O)C2CCCCC2)[C@H]1c1cccnc1OC [Example I-230]						1000 to 10000 nM	1000 to 10000 nM	+++ (≥350)		100 to 200%
COc1ccc(OC(F)(F)F)cc1CN[C@H]1[C@H](C(C)(C)C)[C@@H](C(=O)O)N(C(=O)OC(C)C)[C@H]1c1ccccc1C(C)C [II-560]					> 200%	1000 to 10000 nM	< 1000 nM		+++ (≥350)	
CCCCOC(=O)N1[C@H](C(=O)O)[C@@H](C(C)(C)C)[C@H](NCc2cc(C(C)(C)C)ccc2OC)[C@@H]1c1ccccc1 [II-383]					> 200%	1000 to 10000 nM	< 1000 nM		+++ (≥350)	
